Experimental data: patent US11439657B2, “Cancer stem cell growth inhibitor using miRNA” (CancerStem Tech Inc., priority 2017, dated 2022)
“Also recorded” adds a separate entry of the source.

Assays:
[1] = test system: human large bowel cancer cells (DLD1 line); assay: Infiltration assay (Matrigel Invasion Chambers); assay type: cell-based; conditions: 20 pmol/cell culture insert, 48 hours, versus control miRNA, FIG. 15
Description: The infiltration assay was performed using BD Matrigel Invasion Chambers, 12 Chambers per 24-Well Plate (BD Biosciences). First, […] of RPMI medium (containing 10% by volume FBS) was added in the wells of a companion plate. Furthermore, in a cell culture insert having a Matrigel basement membrane, a mixture of human large bowel cancer cells (DLD1 line) at 1×10^6 cells/well, lipofectamin RNAiMAX Regent (final concentration in the cell culture insert: 2 μL/ml) and hsa-miR-3065-3p (final concentration in the cell culture insert: 20 pmol/cell culture insert) was added, followed by culture for 48 hours. Thereafter, the cell culture insert was removed, and cells adhering to the outside of the Matrigel basement membrane were fixed with formalin and then stained with hematoxylin to count the cells migrated to the outside of the Matrigel basement membrane. In addition, tests were also performed under the same condition on a case where a control miRNA (SEQ ID NO: 9) was used (control miRNA, negative control) in place of hsa-miR-3065-3p.

[2] = test system: human large bowel cancer cells (HT29 line); assay: Drug sensitivity in combination with oxaliplatin (cell viability); assay type: cell-based; conditions: miRNA 50 nM, oxaliplatin 0-128 μM for 72 hours, compared to only oxaliplatin and to control plus oxaliplatin, FIG. 16
Description: A cell suspension prepared by suspending human large bowel cancer cells (HT29 line) in RPMI medium was seeded in each well of a 6-well plate at 3×10^5 cells/well, and a mixture of lipofectamin RNAiMAX Regent (final concentration in well: 0.03 μL/well) and hsa-miR-3065-3p (final concentration in well: 50 nM) was further added, followed by culture for 1 day. Then, cells were recovered and suspended in RPMI medium, and were seeded in each well of a 96-well plate at 3×10^3 cells/well, followed by culture for 2 days. Thereafter, oxaliplatin was added to each well at 0, 2, 4, 8, 16, 32, 64 or 128 μM, followed by additional culture for 72 hours. After culture, living cells in each well were counted by GloMax-Multi Detection System (Promega Corporation). When the number of living cells under a condition where oxaliplatin was not added was 100%, the ratio of the number of living cells under each condition (cell viability, %) was determined. In addition, tests were also performed under the same condition on a case where a control miRNA (SEQ ID NO: 9) was used (control miRNA, negative control) in place of hsa-miR-3065-3p, and on a case where no miRNA was added.

[3] = test system: human large bowel cancer cells (DLD1 line and HT29 line); assay: Colony formation assay; assay type: cell-based; conditions: DLD1 and HT29 lines; 50 nM; culture for 10 days; versus control miRNA; FIG. 14
Description: A cell suspension prepared by suspending human large bowel cancer cells (DLD1 line and HT29 line) in RPMI medium (containing 10% by volume FBS) was seeded in each well of a 6-well plate at 3×10^5 cells/well, followed by culture for 2 days. Then, the medium was changed to RPMI medium (containing no FBS), and a mixture of lipofectamin RNAiMAX Regent (final concentration in each well: 0.03 μL/ml) and hsa-miR-3065-3p (final concentration in each well: 50 nM) was added for transfection, followed by culture for 8 hours. Then, cells after transfection were recovered and suspended in RPMI medium (containing 10% by volume FBS), and were seeded in each well of a 6-well plate at 500 cells/well, followed by culture for 10 days. Thereafter, the culture supernatant was removed, and cells were fixed with methanol and then stained with crystal violet to count the formed colonies. In addition, tests were also performed under the same condition on a case where a control miRNA (SEQ ID NO: 9) was used (control miRNA, negative control) in place of hsa-miR-3065-3p.

[4] = test system: cancer stem cell population (ZsGreen+) established from pancreatic cancer cell line Panc-1; assay: Screening of miRNAs: cell count (cell viability) of the cancer stem cell population after transfection; assay type: cell-based, human; conditions: miRNA 10 pmol/well, lipofectamin 2000, cells counted 48 and 72 hours later, FIG. 4
From the text: A cancer stem cell line was established by transducing a pancreatic cancer cell line (Panc-1) with an ODC (Ornithine Decarboxylase)-Degron system capable of visualizing low metabolism that is a property of cancer stem cells using a retrovirus vector (FIG. 1a). The base sequence coding the used ODC-Degron is as set forth in SEQ ID NO: 10. Usually, cancer stem cells are so 26s proteasome hypometabolic that they cannot degrade the introduced fluorescently labeled Ornithine Decarboxylase Degron, and thus the fluorescent protein sufficiently accumulates to provide visualization.
However, even when the ODC-degron system was introduced into the pancreatic cancer cell line Panc-1, only about 0.06% cells emitting fluorescence (green) were obtained in total. With such a small number of cancer stem cells, a series of experiments including drug screening cannot be performed. Accordingly, further enrichment of cancer stem cells provided a cancer stem cell population in which cells having observed fluorescent coloring (i.e., cancer stem cells) accounted for about 81.18% in total (FIG. 1b). The obtained cancer stem cell population was designated as ZsGreen+.
A cell suspension prepared by suspending the cancer stem cell population (ZsGreen+) in a medium (DMEM medium containing 10% by volume FBS) was seeded in each well of a 24-well plate at a density of 5000 to 10000 cells/well, followed by culture at 37° C. overnight. Thereafter, according to the lipofectamin 2000 protocol, each miRNA was transfected at 10 pmol/well, and 48 hours and 72 hours later, the cells were counted. In addition, tests were also conducted under the same condition on a case where the miRNA was not introduced (untreated group, control), a case where has-miR-34a (SEQ ID NO: 8) was used (positive control) in place of the selected miRNA, and a case where a control miRNA (SEQ ID NO: 9) was used (NC1, negative control) in place of the selected miRNA. In addition, for comparison, the non-cancer stem cell population (ZsGreen−) was used in place of the cancer stem cell population (ZsGreen+) to conduct tests under the same condition.
The ratio of the number of cells under each condition to the number of control cells into which the miRNA was not introduced (cell viability, %) was determined.

| Substance | migration ability of human large bowel cancer cells (cells migrated to the outside of the Matrigel basement membrane) [1] | number of living cells (cell viability) on treatment with both hsa-miR-3065-3p and oxaliplatin [2] | colony forming ability of human large bowel cancer cells [3] | proliferation inhibitory effect on cancer stem cells (cell viability) [4] |
| --- | --- | --- | --- | --- |
| hsa-miR-3065-3p: human-derived miR-3065-3p; base sequence set forth in SEQ ID NO: 2 as mature miRNA (UCAGCACCAGGAUAUUGUUGGAG; listed as RNA, chemistry not given here; listed as Homo sapiens) | able to inhibit the migration ability | significantly reduce the number of living cells | able to inhibit the colony forming ability | effectively suppress proliferation of cancer stem cells; also recorded: prominent proliferation inhibitory effect |
| hsa-miR-136-5p: human-derived miR-136-5p; base sequence set forth in SEQ ID NO: 1 as mature miRNA (ACUCCAUUUGUUUUGAUGAUGGA; listed as RNA, chemistry not given here; listed as Homo sapiens) |  |  |  | effectively suppress proliferation of cancer stem cells; also recorded: prominent proliferation inhibitory effect |
